US8071548B2, “Method of reducing injury to mammalian cells” (Nono, Inc., priority 2002, dated 2011)

Legend:
[1] = system: reactive oxygen species; assay: ROS production (DHR fluorescence); assay type: cell-based, mouse
Experimental: The production of reactive oxygen species (ROS) was measured with DHR. In brief, DHR is oxidized to a fluorescent rhodamine-123 (Royall and Ischiropoulos, 1993), and the consequent rise in fluorescence may be used as an indicator of ROS production.
ROS were measured as previously described (Tymianski et al., 1998; Aarts et al., 2003). In brief, cultures were pre-loaded for 30 min with 5 μM DHR and subjected to the experimental insult. DHR fluorescence was measured in a multiwell plate fluorescence scanner (Cytofluor II, PerSeptive Biosytems, Framingham, Mass., USA; 485 nm excitation, 530 emission). DHR fluorescence was normalized to baseline using the formula at (Ft−Fo)/F0; Where Ft=DHR fluorescence at time t, Fo=DHR fluorescence at time zero. DHR fluorescence images were also acquired using a microscope (465-495 nm excitation and 515-555 nm emission) as described above for TMRM.

[2] = system: mitochondrial membrane potential; conditions: 10 μM; 10 min
[3] = system: cortical neuronal cultures; assay: Sublethal stretch injury with or without NMDA, cell death in cortical cultures; assay type: cell-based; conditions: 200 μM
Experimental: […]. In brief, cerebral cortices from 10 to 12 embryos were incubated for 10 min in 0.05% trypsin-EDTA, dissociated by trituration, and plated on flexible membranes coated with poly-L-ornithine in 6 well plates (Flexcell International Corporation, Hillsborough, N.C.) at a density of 3.25×10^6 cells per well. Plating medium consisted of DMEM supplemented with 10% heat-inactivated horse serum (Gibco) and (in mM) 2 glutamine, 25 glucose, and 26 bicarbonate. The cultures were maintained at 37° C. in a humidified 5% CO2 atmosphere. After 3 days in vitro, growth of non-neuronal cells was halted by a 48 h exposure to 10 μM FDU-solution (5 μM uridine, 5 μM (+)-5-fluor-2′-deoxyuridine). This produces cultures in which >85% of the cells are neurons, based on immunohistochemical staining for glial fibrillary associated protein (exclusive to astrocytes), and for the NMDAR1 subunit (not shown). The cultures were used for experiments after 12-14 days in vitro.
The cultures, grown on silastic membranes as above, were placed in the Flexercell® FX-3000™ Strain Unit (Flexcell Int., Inc.), a computer-driven instrument that uses a vacuum pulse to deform the culture substrate. In all experiments, the cortical cultures were stretched to 130% of their original length for 1 s, inducing a sublethal injury as recently characterized by us (Arundine et al., 2003). The stretched neurons maintained cell membrane integrity, viability, and electrophysiological function.
Cell death was determined by serial quantitative measurements of propidium iodide (PI) fluorescence using a multiwell plate fluorescence scanner (Cytofluor II, PerSeptive Biosytems, Framingham, Mass., USA) as described previously (Sattler et al., 1997; Sattler et al., 1998). In brief, the culture medium in each tissue culture well was replaced with control solution containing 50 μg/ml PI, and a baseline fluorescence reading was taken. Sequential readings were then taken at appropriate intervals over the 20 h observation period. The fraction of dead cells in each culture at a given time was calculated as: Fraction dead=(Ft−Fo)/FNMDA Where Ft=PI fluorescence at time t, F0=initial PI fluorescence at time zero and FNMDA=background subtracted PI fluorescence of identical cultures from the same dissection and plating, 20-24 h after a 60 min exposure to 1 mM NMDA at 37° C. Based on manual observations at the time of validation of this technique, this NMDA exposure routinely produced near complete neuronal death in each culture but had no effect on surrounding glia (also see (Bruno et al., 1994; David et al., 1996; Sattler et al., 1997)). Adding Triton X-100 (0.1%) to cultures treated in this manner produced an additional 10-15% increase in PI fluorescence due to permeabilization of non-neuronal cell membranes, consistent with a 10-15% glial component in the cultures.
All experiments were performed at 37° C. Unless otherwise indicated, all solutions contained nimodipine (2 μM) and CNQX (10 μM) to restrict the actions of applied NMDA to NMDARs by preventing the secondary activation of other pathways (Sattler et al., 1998). In general, the cultures were washed ×2 with control solution and immediately stretched to 130% of their original length for 1 s. After the stretch, they were washed ×1 with control solution alone or challenged with an additional treatment (e.g., NMDA) and placed at 37° C. for 1 h. They were then washed ×1 with control solution and then with control solution containing 50 μg/ml PI to obtain a baseline reading. In pilot studies, baseline readings obtained at this stage were similar to those obtained by staining the cells with PI prior to stretch. As the stretch causes splashing of the bath solution, staining with PI after stretch reduced biohazard potential and artifacts associated with PI outside the culture well. Unstretched controls were manipulated identically to stretched cultures.

[4] = system: cortical neuronal cultures; assay: DNA fragmentation assays (TUNEL, DNA gel electrophoresis); assay type: cell-based, mouse
Text: DNA fragmentation was examined using the terminal deoxynucleotidyl transferase-mediated end nick labeling (TUNEL) method (Gavrieli et al., 1992; Didenko and Hornsby, 1996; Didenko et al., 1998) and by DNA agarose gel electrophoresis (Hill et al., 2000).
TUNEL Assay: Nuclear DNA strand breaks were detected by enzymatically labeling free 3′-OH termini with modified nucleotides provided in the Apoptag kit (Intergen) using the manufacturer's instructions. Visualization of TUNEL-stained nuclei was achieved using an anti-digoxigenin antibody conjugated to a fluorescein or peroxidase reporter molecule (ApopTag Peroxidase Kits S7110 and S7100, respectively, Intergen). In fluorescence experiments, nuclei were counterstained using 5 ng/ml Hoechst 33258 (1:5000, Transduction Labs), and visualized using 465-495 nm excitation and 515-555 nm emission for fluorescein and 340 nm excitation and 510-40 nm emission for Hoechst. The number of TUNEL positive cells was expressed as a fraction of the total cell number in the field. In each culture, 4-8 random fields were quantified. Approximately 100-200 cells were counted per culture, and at least 3 experiments were performed for each set of counts.
DNA Gel Electrophoresis: DNA laddering was evaluated as described elsewhere (Hill et al., 2000). In brief, all tissue was collected from each culture well and pelleted by centrifugation (1000 rpm; 1 min). The cells were digested for 2 h at 56° C. in buffer containing (in mM) 10 Tris pH 8.0, 2 EDTA pH8, 400 NaCl, 0.5% SDS, 1 mg/ml proteinase K. Digest solution was subjected to phenol/chloroform extraction and total DNA was precipitated from the aqueous layer with an equal volume of 100% ethanol. The DNA pellet was dried, dissolved in 50 μl ddH20 and kept overnight at 4° C. 10 μg DNA was prepared on a 2% agarose gel. Gels were stained with ethidium bromide and photographed.

[5] = system: cultured cortical neurons
[6] = system: transient middle cerebral artery occlusion; assay: Transient MCAO, dose study of infarct size; assay type: in vivo, Sprague-Dawley rats; conditions: 6 mg/kg 1 h before the stroke
[7] = system: caspase 3; assay: Active caspase 3 immunofluorescence; assay type: cell-based, mouse; conditions: positive control
Experimental: Cultures were fixed with warm 4% paraformaldehyde and 4% sucrose in PBS for 20 min, permeabilized with 0.1% Triton X-100 for 10 min at 4° C., and blocked with 10% goat serum in PBS for 1 h at RT. Immunofluorescence was visualized with an inverted Nikon microscope using a 40× oil immersion lens. FITC, rhodamine and Hoechst were visualized using 465-495 excitation and 515-555 nm emission, 510-560 nm excitation and 590 nm emission, and 340 nm excitation and 510 nm emission, respectively. Active caspase 3 was labelled by incubating the cultures with a purified rabbit monoclonal anti-active caspase 3 antibody (1:300; BD PharMingen) and a fluorescein-conjugated goat anti-mouse IgG secondary antibody (1:500; Transduction Labs). Nitrotyrosine was labelled by incubating the cultures with a rabbit polyclonal α-nitrotyrosine primary antibody (1:300; Upstate) and a rhodamine-conjugated goat anti-rabbit IgG secondary antibody (1:500; Transduction Labs). AIF was labelled by incubating the cultures with an AIF antibody (1:200; Santa Cruz, (Zhang et al., 2002)) and a rhodamine-conjugated goat anti-mouse IgG secondary antibody (1:500; Transduction Labs). In some experiments, nuclei were counter-stained with Hoechst 33258 (1:5,000, Transduction Labs).

[8] = system: NMDARs; assay: Whole cell patch-clamp recordings of NMDA currents in cultured neurons; assay type: cell-based, mouse; conditions: intracellular dialysis of 1 mM peptide, 300 μM NMDA
[9] = system: traumatic brain injury; assay: Lateral fluid percussion injury model of TBI; assay type: in vivo, Sprague-Dawley rats; conditions: analyzed 24 h after injury
Experimental: Adult male Sprague-Dawley rats weighing approximately 350 g were ordered from Charles River and anesthesia was induced using a gaseous mixture of 1:2 oxygen:nitrous oxide with 2% halothane. The halothane level was reduced to 1% during surgical manipulations and weights were recorded prior to preparatory surgery. The preparatory surgery for these experiments included the cannulation of the left femoral vein and a 5 mm diameter craniotomy. The venous cannula is sealed and tucked inside the animal whereupon the wound is sutured. The center of the craniotomy lies about 2.5 mm to the right of the sagittal suture, between the bregma and lambda. A modified Leur-loc is attached to the perimeter of the craniotomy with superglue (FIG. 28).
Dental acrylic (GC America Inc, Alsip, Ill.) is applied around the modified Leur-loc to seal it into place. A small piece of gelfoam is placed into the opening and the skin is sutured over the entire setup. The animal is then returned to its cage. The following day, the animal is re-anesthetized, weighed, and its wound is re-opened. The gelfoam is removed and the animal is attached to the fluid percussion device via the modified Leur-loc. At this time, the animal is given a ˜20 ms saline injection at approximately 2.4 atmospheres (350 mV on the oscilloscope) using the fluid percussion injury device (Custom Design & Fabrication, Richmond, Va.) (FIG. 29).
On occasion, the animal ceases spontaneous breathing following the injury and 1-2 chest compressions are required for resuscitation. The modified Leur-loc along with the dental acrylic is removed en bloc immediately following the injury. The animal is placed on 100% oxygen while its wound is cleaned and resealed with Vetbond tissue adhesive (3M Worldwide, Maplewood, Minn.). The rat's body temperature during the recovery time is maintained at 37° C. with a homeothermic warming blanket (Harvard Bioscience Inc, Holliston, Mass.). The amount of time necessary for the righting reflex to return is recorded and the animal is placed back into its cage. At 3 h post-injury, the animal is re-anesthetized and weighed again. The wound overlying the femoral cannula is opened and the cannula is cleaned out using heparinized saline. […] The cannula is sealed, tucked again into the animal, and the wound is re-sutured. At 24 h post-injury, the animal is re-anesthetized and weighed again. The rat is transcardially perfused using heparinized saline to clean out the cardiovascular system, followed by a 4% formalin fixative solution. The rat is decapitated and left in the fixative solution overnight. The brain is extracted the following day and processed. The volume of damaged brain (FIG. 26, right graph) is assessed according to the same methods as described in Aarts et al., 2002, for assessing stroke volumes. […]

[10] = system: cortical neuronal cultures; assay: Staurosporine-induced cell death in cortical cultures; assay type: cell-based, mouse; conditions: 200 μM for 48 h, staurosporine 1 μM
[11] = 20 h post-insult, 200 μM MnTBAP or 100 μM L-NAME

**Q.** `N#CC(C#N)=NNc1ccc(OC(F)(F)F)cc1` [FCCP, reference compound] was tested. Which DHR fluorescence ([1]; mitochondrial uncoupler) did it give?
**A.** Its DHR fluorescence is “abolished all DHR fluorescence”.

**Q.** And the “mitochondrial depolarization (loss of TMRM fluorescence)” value [2]?
**A.** The value was “profound mitochondrial depolarization”.

**Q.** What does the source list for `O=C(O)c1ccc(-c2c3nc(c(-c4ccc(C(=O)O)cc4)c4ccc([n-]4)c(-c4ccc(C(=O)O)cc4)c4nc(c(-c5ccc(C(=O)O)cc5)c5ccc2[n-]5)C=C4)C=C3)cc1.[Mn+3]` [MnTBAP, manganese(III) tetrakis(4-benzoic acid) porphyrin]?
**A.** cell death in stretched cells treated with 30 μM NMDA ([3]; 30 min preincubation, 20 h): completely eliminated cell death; DHR fluorescence (ROS production) ([1]; 200 μM pretreatment): reduced DHR fluorescence in all culture conditions; DNA laddering after stretch followed by NMDA [4, 11]: virtually abolished; TUNEL staining after stretch followed by NMDA [4, 11]: virtually abolished; SNP toxicity ([5]; SNP 300 μM, 200 μM MnTBAP pretreatment): reduced SNP toxicity to baseline

**Q.** For `CC(C(O)c1ccc(O)cc1)N1CCC(Cc2ccccc2)CC1` (centres unmarked) [Ro25-6981, reference compound], which “infarct size versus control dose” value [6] is on record?
**A.** The value was “significant reduction in infarct size”.

**Q.** How did the NO donor toxicity [5] turn out when `N[C@@H](CSN=O)C(=O)O` [S-nitrosocysteine] was run?
**A.** Its NO donor toxicity is “highly toxic”.

**Q.** With `CN[C@@H]1C[C@H]2O[C@@](C)([C@@H]1OC)n1c3ccccc3c3c4c(c5c6ccccc6n2c5c31)C(=O)NC4` [staurosporine] as the compound, how does the “active caspase 3 staining” value [7] read?
**A.** Its value is “stained for active caspase 3”.

**Q.** And the “DNA laddering by gel electrophoresis” value ([4]; 1 μM for 48 h)?
**A.** The value was “DNA ladders suggestive of intenucleosomal DNA fragmentation”.

**Q.** And the TUNEL staining ([4]; 1 μM for 48 h)?
**A.** Its TUNEL staining is “TUNEL staining was observed”.

**Q.** Which “peak NMDA current amplitudes” value [8] does the source give for CSKDTMEKSESL here?
**A.** Its value is 2540±281 pA.

**Q.** What does the source list for Tat-KLSSIETDV?
**A.** total volume of injured brain ([9]; 3 hours after TBI): significantly reduced; fraction of dead cells in cerebral cortex and hippocampus ipsilateral to the injury ([9]; via femoral cannula 3 hours after TBI): markedly reduced fraction of dead cells

**Q.** For “z-val-ala-asp-fluoromethylketone [z-VAD-FMK]”, which “attenuation of staurosporine-induced death” value [10] is on record?
**A.** Its value is “significantly reduced”.

**Q.** And the “attenuation of staurosporine-induced death” value ([10]; listed as zvadFMK)?
**A.** Its value is 47%.

**Q.** What about the “cytotoxicity in stretched cultures with 30 μM NMDA” value [3] of the same compound?
**A.** The value was “no significant reduction in cytotoxicity”.

**Q.** What about the “toxicity to unstretched cultures or stretch alone” value [3] of the same compound?
**A.** The value was “not toxic”.

**Q.** What about the “DNA fragmentation of neurons exposed to stretch+NMDA” value ([4]; DNA gel electrophoresis) of the same compound?
**A.** Its value is “did not reduce DNA fragmentation”.
